Experimental data as given in patent US8722644B2, “Mixture of hyaluronic acid for treating and preventing peptic ulcer and duodenal ulcer” (Holy Stone Healthcare Co., Ltd., priority 2010, dated 2014).

Tested on: rats that had Aspirin induced gastrointestinal ulcers
Test: Treatment effects of PU98 on rats that had Aspirin induced gastrointestinal ulcers
Format: in vivo
Conditions: 200 mg Aspirin intraperitoneal day 1 to day 3 after fasting; thirty rats; internal abdominal bleeding upon dissection
Source text: PU98 (composition of binary molecular weight of HA that are 70% HA with an average Mw of 2000 KDa and 30% HA with an average Mw of 1000 KDa in PBS solution, the final concentration is 0.5%; i.e. 0.5 g HA in 100 c.c. PBS solution).
Thirty eight-weeks-old SPF Sprague-Dawley male rats (BioLASCO Taiwan Co., Ltd.), were divided into 3 groups: study group (Aspirin/PU98), placebo group (Aspirin/PBS), control group (PBS), each group consisting of 10 rats with 2 rats housed per cage at the Animal Technology Institute Taiwan rodents room.
Before animal experimentation, rats were first fasted for 24 hours or more. From day one (D1) of experimentation to day three (D3), rats were given 1 ml of Aspirin (200 mg/ml) through intraperitoneal administration.
From day 4 to day 18, rats of the study group were given 1 ml of Aspirin (100 mg/ml) daily through intraperitoneal administration, they were also fed a 2 ml dosage of PU98 once every morning and afternoon.
From day 4 to day 18, rats of the placebo group were given 1 ml of Aspirin (100 mg/ml) daily through intraperitoneal administration, however they were fed a 2 ml dosage of PBS (placebo) once every morning and afternoon. […]
The present invention was analyzed by “student t test” to evaluate relationship between the study group, placebo group and control group.

Q: For `CC(=O)Oc1ccccc1C(=O)O` [Aspirin], which “rats died on day 4 after Aspirin induction” value is on record?
A: 11
